Source: patent US20200369728A1, “PEPTIDOMIMETIC MACROCYCLES AND USES THEREOF” (Aileron Therapeutics, Inc., priority 2015, published 2020)

Legend:
SJSA-1 cells = assay: Cell lysis by peptidomimetic macrocycles (LDH release); format: cell-based; conditions: SJSA-1, 1 h
Method: SJSA-1 cells were plated out one day in advance in clear flat-bottom plates (Costar, catalog number 353072) at 7500 cells/well with 100 ul/well of growth media, leaving row H columns 10-12 empty for media alone. On the day of the assay, media was exchanged with RPMI 1% FBS media, 90 uL of media per well.
10 mM stock solutions of the peptidomimetic macrocycles were prepared in 100% DMSO. Peptidomimetic macrocycles were then diluted serially in 100% DMSO, and then further diluted 20-fold in sterile water to prepare working stock solutions in 5% DMSO/water of each peptidomimetic macrocycle at concentrations ranging from 500 μM to 62.5 μM.
10 μL of each compound was added to the 90 uL of SJSA-1 cells to yield final concentrations of 50 μM to 6.25 μM in 0.5% DMSO-containing media. The negative control (non-lytic) sample was 0.5% DMSO alone and positive control (lytic) samples include 10 μM Melittin and 1% Triton X-100.
Cell plates were incubated for 1 hour at 37° C. After the 1 hour incubation, the morphology of the cells is examined by microscope and then the plates were centrifuged at 1200 rpm for 5 minutes at room temperature. 40 μL of supernatant for each peptidomimetic macrocycle and control sample is transferred to clear assay plates. LDH release is measured using the LDH cytotoxicity assay kit from Caymen, catalog #1000882.

Caspase 3 = Caspase 3 detection assay in SJSA1 cells; format: cell-based; conditions: SJSA1, 48 h, Caspase 3 activation over DMSO-treated cells

Compound	6.25 μM % Lysed cells (1 h LDH) (SJSA-1 cells) [%]	25 μM % Lysed cells (1 h LDH) (SJSA-1 cells) [%]	50 μM % Lysed cells (1 h LDH) (SJSA-1 cells) [%]	caspase 0.3 μM (Caspase 3)	caspase 3 μM (Caspase 3)	caspase 10 μM (Caspase 3)	caspase 30 μM (Caspase 3)
CC(=O)N[C@@H](CC(C)C)C(=O)N[C@H](C(=O)N[C@@H](Cc1ccccc1)C(=O)N[C@]1(C)CCCCCCC=CCCC[C@@](C)(C(=O)N[C@@H](CO)C(=O)NC(C)(C)C(=O)N[C@@H](C)C(=O)N[C@@H](C)C(N)=O)NC(=O)[C@H](CC(C)C)NC(=O)[C@H](CCC(N)=O)NC(=O)[C@H](C)NC(=O)[C@H](Cc2c[nH]c3ccccc23)NC(=O)[C@H](Cc2ccc(O)cc2)NC(=O)[C@H](C)NC1=O)[C@@H](C)O (single isomer, unassigned) [compound 26]	2	−1	0	1	1	3	14
CC[C@H](C)[C@H](NC(=O)[C@H](C)NC(=O)[C@H](C)NC(=O)[C@]1(C)CCCC=CCCCCCC[C@@](C)(NC(=O)[C@H](Cc2ccccc2)NC(=O)[C@@H](NC(=O)[C@H](CC(C)C)NC(C)=O)[C@@H](C)O)C(=O)N[C@@H](C)C(=O)N[C@@H](Cc2ccc(O)cc2)C(=O)N[C@@H](Cc2c[nH]c3ccccc23)C(=O)N[C@@H](C)C(=O)N[C@@H](C)C(=O)N[C@@H](CC(C)C)C(=O)N1)C(=O)N[C@@H](C(N)=O)C(C)C (single isomer, unassigned) [compound 77]	−2	1	−1	1	2	19	23
CCCC[C@H](NC(=O)[C@H](C)NC(=O)[C@H](C)NC(=O)[C@]1(C)CCCC=CCCCCCC[C@@](C)(NC(=O)[C@H](Cc2ccccc2)NC(=O)[C@@H](NC(=O)[C@H](CC(C)C)NC(C)=O)[C@@H](C)O)C(=O)N[C@@H](C)C(=O)N[C@@H](Cc2ccc(O)cc2)C(=O)N[C@@H](Cc2c[nH]c3ccccc23)C(=O)N[C@@H](C)C(=O)N[C@@H](C)C(=O)N[C@@H](CC(C)C)C(=O)N1)C(=O)N[C@@H](C(N)=O)C(C)C (single isomer, unassigned) [compound 80]	0	1	5	1	2	13	20
CC(=O)N[C@@H](CC(C)C)C(=O)N[C@H](C(=O)N[C@@H](Cc1ccccc1)C(=O)N[C@]1(C)CCCCCCC=CCCC[C@@](C)(C(=O)N[C@@H](CO)C(=O)N[C@H](C(=O)N[C@@H](C)C(N)=O)C(C)C)NC(=O)[C@H](CC(C)C)NC(=O)[C@H](CCC(N)=O)NC(=O)[C@H](C)NC(=O)[C@H](Cc2c[nH]c3ccccc23)NC(=O)[C@H](Cc2ccc(O)cc2)NC(=O)[C@H](C(C)C)NC1=O)[C@@H](C)O (single isomer, unassigned) [compound 139]	−2	−1	−1	1	2	9	18
CC(=O)N[C@@H](CC(C)C)C(=O)N[C@H](C(=O)N[C@@H](Cc1ccccc1)C(=O)N[C@]1(C)CCCCCCC=CCCC[C@@](C)(C(=O)N[C@@H](CO)C(=O)N[C@H](C(=O)N[C@@H](CO)C(N)=O)C(C)C)NC(=O)[C@H](CC(C)C)NC(=O)[C@H](CCC(N)=O)NC(=O)[C@H](C)NC(=O)[C@H](Cc2c[nH]c3ccccc23)NC(=O)[C@H](Cc2ccc(O)cc2)NC(=O)[C@H](C(C)C)NC1=O)[C@@H](C)O (single isomer, unassigned) [compound 142]	1	1	3	1	2	15	20
CC(=O)N[C@@H](CC(C)C)C(=O)N[C@H](C(=O)N[C@@H](Cc1ccccc1)C(=O)N[C@]1(C)CCCCCCC=CCCC[C@@](C)(C(=O)N[C@@H](CO)C(=O)N[C@@H](C)C(=O)N[C@@H](CO)C(N)=O)NC(=O)[C@H](CC(C)C)NC(=O)[C@H](CCC(N)=O)NC(=O)[C@H](C)NC(=O)[C@H](Cc2c[nH]c3ccccc23)NC(=O)[C@H](Cc2ccc(O)cc2)NC(=O)[C@H](C(C)C)NC1=O)[C@@H](C)O (single isomer, unassigned) [compound 144]	1	−1	2	1	4	10	16
CC(=O)N[C@@H](CC(C)C)C(=O)N[C@H](C(=O)N[C@@H](Cc1ccccc1)C(=O)N[C@]1(C)CCCCCCC=CCCC[C@@](C)(C(=O)N[C@@H](CO)C(=O)N[C@@H](C)C(=O)N[C@@H](C)C(N)=O)NC(=O)[C@H](C2CCCC2)NC(=O)[C@H](CCC(N)=O)NC(=O)[C@H](C)NC(=O)[C@H](Cc2c[nH]c3ccccc23)NC(=O)[C@H](Cc2ccc(O)cc2)NC(=O)[C@H](CCC(=O)O)NC1=O)[C@@H](C)O (single isomer, unassigned) [compound 149]	6	7	21	1	2	4	10
CC(=O)N[C@@H](CC(C)C)C(=O)N[C@H](C(=O)N[C@@H](Cc1ccccc1)C(=O)N[C@]1(C)CCCCCCC=CCCC[C@@](C)(C(=O)N[C@@H](CO)C(=O)N[C@@H](C)C(=O)N[C@@H](C)C(N)=O)NC(=O)[C@H](CC2CCC2)NC(=O)[C@H](CCC(N)=O)NC(=O)[C@H](C)NC(=O)[C@H](Cc2c[nH]c3ccccc23)NC(=O)[C@H](Cc2ccc(O)cc2)NC(=O)[C@H](CCC(=O)O)NC1=O)[C@@H](C)O (single isomer, unassigned) [compound 153]	4	2	3	2	10	15	20
CC[C@H](C)[C@H](NC(=O)[C@H](C)NC(=O)[C@H](C)NC(=O)[C@]1(C)CCCC=CCCCCCC[C@@](C)(NC(=O)[C@H](Cc2ccccc2)NC(=O)[C@@H](NC(=O)[C@H](CC(C)C)NC(C)=O)[C@@H](C)O)C(=O)N[C@@H](C)C(=O)N[C@@H](Cc2ccc(O)cc2)C(=O)N[C@@H](Cc2c[nH]c3ccccc23)C(=O)N[C@@H](C)C(=O)N[C@@H](C)C(=O)N[C@@H](CC(C)C)C(=O)N1)C(=O)N[C@H](C)C(N)=O (single isomer, unassigned) [compound 203]	0	2	2	1	3	12	10
CC(=O)N[C@@H](CC(C)C)C(=O)N[C@H](C(=O)N[C@@H](Cc1ccccc1)C(=O)N[C@]1(C)CCCCCCC=CCCC[C@@](C)(C(=O)N[C@@H](C)C(=O)N[C@@H](C)C(=O)N[C@@H](Cc2ccccc2)C(=O)N[C@H](C)C(N)=O)NC(=O)[C@H](CC(C)C)NC(=O)[C@H](CCC(N)=O)NC(=O)[C@H](C)NC(=O)[C@H](Cc2c[nH]c3ccccc23)NC(=O)[C@H](Cc2ccc(O)cc2)NC(=O)[C@H](CCC(=O)O)NC1=O)[C@@H](C)O (single isomer, unassigned) [compound 218]	0	−4	1	1	2	8	18
